Laboratory results published in ChEMBL document CHEMBL3853342, “Design, synthesis and biological evaluation of novel benzo-α-pyrone containing piperazine derivatives as potential BRAFV600E inhibitors” (Bioorg Med Chem Lett, 2016).

Experiments:
[1] = Antiproliferative activity against human A375 cells assessed as cell growth inhibition after 24 hrs by MTT assay; assay type: functional, cell-based; conditions: A-375, 24 h
[2] = Antiproliferative activity against human WM266.4 cells harboring BRAF V600E mutant assessed as cell growth inhibition after 24 hrs by MTT assay; assay type: functional, cell-based; conditions: WM 266-4, 24 h
[3] = Antiproliferative activity against human WM1361 cells assessed as cell growth inhibition after 24 hrs by MTT assay; assay type: functional, cell-based; conditions: WM1361, 24 h
[4] = Cytotoxicity against human 293T cells assessed as cell growth inhibition after 24 hrs by MTT assay; assay type: toxicity, cell-based, HEK-293T
[5] = target: Serine/threonine-protein kinase B-raf (Homo sapiens, UniProt P15056, V600E); assay: Inhibition of human recombinant GST-tagged BRAF catalytic domain (416 to 766 residues) V600E mutant expressed in baculovirus expression system preincubated for 1 hr followed by human full length recombinant N-terminal His-tagged MEK1 substrate addition measured after 25 mins by gel electrophoresis method
Chain of Serine/threonine-protein kinase B-raf (P15056 2-766 V600E limits assumed): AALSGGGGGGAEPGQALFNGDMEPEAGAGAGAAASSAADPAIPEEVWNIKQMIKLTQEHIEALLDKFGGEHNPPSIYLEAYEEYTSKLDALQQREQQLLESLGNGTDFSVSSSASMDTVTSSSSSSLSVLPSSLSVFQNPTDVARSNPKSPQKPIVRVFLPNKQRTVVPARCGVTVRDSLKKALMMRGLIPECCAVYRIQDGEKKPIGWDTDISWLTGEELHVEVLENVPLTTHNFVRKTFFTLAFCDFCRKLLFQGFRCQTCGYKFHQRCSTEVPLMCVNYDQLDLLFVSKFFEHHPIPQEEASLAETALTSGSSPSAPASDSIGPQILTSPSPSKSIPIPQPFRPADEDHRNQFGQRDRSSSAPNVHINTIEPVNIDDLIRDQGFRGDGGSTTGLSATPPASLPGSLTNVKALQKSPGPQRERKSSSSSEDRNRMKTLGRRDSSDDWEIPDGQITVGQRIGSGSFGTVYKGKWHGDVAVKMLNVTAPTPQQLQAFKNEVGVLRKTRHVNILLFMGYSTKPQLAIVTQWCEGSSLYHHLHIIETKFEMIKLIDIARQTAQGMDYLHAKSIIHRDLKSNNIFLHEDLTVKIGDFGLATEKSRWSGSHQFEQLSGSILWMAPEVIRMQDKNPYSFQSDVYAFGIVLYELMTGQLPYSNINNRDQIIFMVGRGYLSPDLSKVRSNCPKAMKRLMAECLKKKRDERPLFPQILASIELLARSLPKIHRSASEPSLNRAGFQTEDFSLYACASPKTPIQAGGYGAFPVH

CCCS(=O)(=O)Nc1ccc(F)c(C(=O)c2c[nH]c3ncc(-c4ccc(Cl)cc4)cc23)c1F [VEMURAFENIB]
IC50 [1]: 0.21 µM | IC50 [2]: 0.07 µM | IC50 [3]: 1.86 µM | CC50 at 24 h [4]: > 50 µM

O=c1oc2ccccc2c(N2CCN(c3cccc(Cl)c3Cl)CC2)c1CO
IC50 [5]: 3.27 µM | IC50 [1]: 8.45 µM | IC50 [2]: 6.56 µM | IC50 [3]: 45.9 µM | CC50 at 24 h [4]: > 50 µM

COc1ccccc1N1CCN(c2c(CO)c(=O)oc3ccccc23)CC1
IC50 [5]: 10.1 µM | IC50 [1]: 20 µM | IC50 [2]: 18.3 µM | IC50 [3]: > 50 µM | CC50 at 24 h [4]: > 50 µM

O=c1oc2ccccc2c(N2CCN(C(c3ccc(F)cc3)c3ccc(F)cc3)CC2)c1CO
IC50 [5]: 0.68 µM | IC50 [1]: 3.16 µM | IC50 [2]: 2.57 µM | IC50 [3]: 29.4 µM | CC50 at 24 h [4]: > 50 µM

COc1cccc(N2CCN(c3c(CO)c(=O)oc4ccccc34)CC2)c1
IC50 [5]: 1.76 µM | IC50 [1]: 6.51 µM | IC50 [2]: 5.33 µM | IC50 [3]: 38.1 µM | CC50 at 24 h [4]: > 50 µM

O=c1oc2ccccc2c(N2CCN(c3cccc(C(F)(F)F)c3)CC2)c1CO
IC50 [5]: 24.2 µM | IC50 [1]: 31.9 µM | IC50 [2]: 30 µM | IC50 [3]: > 50 µM | CC50 at 24 h [4]: > 50 µM

O=c1oc2ccccc2c(N2CCN(c3cccc(Cl)c3)CC2)c1CO
IC50 [5]: 33.5 µM | IC50 [1]: 40.5 µM | IC50 [2]: 46.3 µM | IC50 [3]: > 50 µM | CC50 at 24 h [4]: > 50 µM
